# Laboratory results taken from patent publication US8765641B2, “Chip production, hybridization and data interpretation for antibody and protein microarrays” (Detroit R&D, Inc., priority 2004, dated 2014).
# Values joined by “and” are separate entries in the source; they are usually repeats but may differ in a detail not shown here. Equal entries are not always repeated. Where two headings read alike, the source gives them in different places. Marks after values point to notes of the source that are not given here.
# Legend:
# [1] = test system: CYP2B1/2B2; experiment: Western blot analysis of rat hepatic proteins after PB treatment; assay type: in vivo; set-up: key: Highly Induced: Not detected in control but strong band after PB treatment.; Moderately Induced: Not detected in control but bands with a medium intensity detected after PB treatment; settings: rat hepatic microsomal proteins, PB treated vs control
# Protocol: (§1) SDS-PAGE was carried out on 10% or 15% gels. The separated proteins were electroblotted onto cellulose membrane and Western blot analyses were carried out using horseradish peroxidase-system with electrochemiluminescent substrates.
# (§2) This microarray result was obtained by combining results from Control 1 and PB 1 assays and Control 2 and PB 2 assays. Expression levels of CYP2B1/2B2, CYP2B1, COX-2, CYP2D, CYP3A1/2/23, CYP2C11 and G3PDH in Rat #1 (Control 1), Rat #2 (PB 1), Rat #3 (Control 2) and Rat #4 (PB 2) were verified by Western blot analyses of microsomal and cytosolic proteins. Protein bands obtained by Western blot analyses were quantitated using a densitometer (Molecular Dynamics). […] COX-2 expression usually detected in microsomes also detected in cytosol. The cytosolic COX-2 levels were normalized by G3PDH levels.
# [2] = test system: CYP2D; experiment: as above; assay type: in vivo; settings: rat hepatic microsomal proteins, PB treated vs control; two sets; mean and difference from the mean
# Protocol: as §1, §2
# [3] = test system: CYP3A; experiment: as above; assay type: in vivo; settings: rat hepatic microsomal proteins, PB treated vs control; two sets; mean and difference from the mean
# Protocol: as §1, §2
# [4] = test system: CYP3A (CYP3A1/2/23); settings: anti-serum spots, IgG concentration not given
# [5] = test system: Tubulin-alpha; settings: rat hepatic proteins after PB treatment, 500 μg/ml IgG (ascites fluid), Flag internal control
# [6] = test system: Alpha-actin; settings: rat hepatic proteins after PB treatment; 500 μg/ml IgG (ascites fluid); Flag internal control
# [7] = test system: Tubulin-beta; settings: rat hepatic proteins after PB treatment; 500 μg/ml IgG; Flag internal control
structure (smiles),measurement,setting,value
CCC1(c2ccccc2)C(=O)NC(=O)NC1=O [phenobarbital],"fold-increase of protein expression level, Western Blot Analysis, CYP2B1/2B2",[1],Highly Induced^b
same,"fold-increase of protein expression level, Western Blot Analysis, CYP2D",[2],failed to increase
same,"fold-increase of protein expression level, Western Blot Analysis, CYP3A",[3],7.00 ± 4.80^d fold
same,"CYP3A expression after phenobarbital treatment, array analysis",[4],increased higher than two-fold
same,"Fold-Change of Protein Expression Level, Tubulin-alpha",[5],1.7 fold and 1.7^a fold
same,"Fold-Change of Protein Expression Level, Tubulin-alpha",[5]; listed as PB,1.7 fold
same,"Fold-Change of Protein Expression Level, Alpha-actin",[6],0.8 fold
same,"Fold-Change of Protein Expression Level, Tubulin-beta",[7],0.7 fold
